For 2 molecules, EC50 results are on record in patent publication US7582629B2, “Derivatives of isothiazol-3(2H)-one 1,1-dioxides as liver X receptor modulators” (AstraZeneca AB, priority 2005, dated 2009).

The assay addresses T1, LXRα (Homo sapiens, UniProt Q13133).
T1 construct: human LXRalpha (amino acid 205-447); made in house; host or cells: E. coli
T1 sequence (Q13133 205-447): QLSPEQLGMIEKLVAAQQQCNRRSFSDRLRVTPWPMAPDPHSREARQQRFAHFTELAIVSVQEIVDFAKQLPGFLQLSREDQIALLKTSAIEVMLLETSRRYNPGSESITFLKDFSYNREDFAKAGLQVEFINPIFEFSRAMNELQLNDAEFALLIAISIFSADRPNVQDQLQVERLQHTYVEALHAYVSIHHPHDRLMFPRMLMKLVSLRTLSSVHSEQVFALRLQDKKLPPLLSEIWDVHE
The assay can be described thus: Co-activator recruitment assay (LXR-LBD / SRC-1 peptide, time-resolved fluorescence). As to conditions: coactivator recruitment assays. It is filed as biochemical. From the text:
The Ligand Binding Domain (LBD) of human LXRalpha (amino acid 205-447) and LXRbeta (amino acid 216-461) was produced by recombinant techniques in E. coli. A fragment of the human Steroid Receptor Co-Activator-1 (SRC-1) was produced as a synthetic peptide. An anti-6×His-antibody coupled with Europium (Eu^3+) was used to recognize the His-tag on the LXR-LBD and Allophycocyanin (APC) coupled to streptavidin was used to recognize the biotinylated SRC-1. Agonist binding to LXRalpha or LXRbeta enhances the affinity of LXR towards SRC-1 and thereby brings Eu^3+ and APC in close proximity. Eu^3+ is excited at 337 nm and emitts light at 620 nm. This emission, when in close proximity, excites APC to emit light at 665 nm.
Compounds (10 mM) in DMSO were diluted (⅓) in DMSO in 10 concentrations. […]
The assay mix has the following final concentrations; LXRalpha mix: 0.06 μg/mL Eu-labelled anti-6×His Ab, […] Streptavidin APC, 30 nM SRC-1 peptide and 0.9 μg/mL LXRalpha in buffer and LXRbeta mix; 0.06 μg/mL Eu-labelled anti-6×His Ab, 1.15 μg/1 mL Streptavidin APC, 90 nM SRC-1 peptide and 0.2 μg/mL LXRbeta in buffer. Time-resolved fluorescence readings were done in a Wallac Victor reader at 665 nm followed by reading at 615 nm. […]

For `COCCN1C(=O)C(Nc2ccc3oc(C(C)=O)cc3c2)=C(c2ccccc2)S1(=O)=O` [Example 13, 4-[(2-Acetyl-1-benzofuran-5-yl)amino]-2-(2-methoxyethyl)-5-phenylisothiazol-3(2H)-one 1,1-dioxide], a half-maximal effect (EC50) was put at 0.27 µM. Take `O=C1C(Nc2ccc(OC(F)F)cc2)=C(c2ccccc2)S(=O)(=O)N1Cc1ccc(OC(F)F)cc1` [Example 14, 2-[4-(Difluoromethoxy)benzyl]-4-{[4-(difluoromethoxy)phenyl]amino}-5-phenylisothiazol-3(2H)-one 1,1-dioxide]: the EC50 (commonly the concentration that produces a half-maximal response) turned out to be 0.075 µM. Compared with the last molecule, the EC50 is about 3.6-fold lower.
